Measured values taken from patent US9212196B2, “Hypophosphorous acid derivatives having antihyperalgic activity and biological applications thereof” (UNIVERSITE PARIS DESCARTES, priority 2011, dated 2015).

Experiments:
mGlu7 [1] = assay: Agonist activity on mGlu7 in transfected HEK293 cells, intracellular calcium release (Fluo4-AM); assay type: cell-based; details: ratio of mGlu7 EC50 to mGlu4 EC50
Source text: (§1) The EC50's are compared to those of L-AP4 (L-2-amino-4-phosphonobutyric acid) used as a reference.
(§2) Metabotropic glutamate receptors were transiently transfected in HEK293 cells by electroporation as described elsewhere (Brabet I. et al., 1998) and plated in 96-well microplates. The high affinity glutamate transporter EAAC1 was co-transfected with the receptor in order to avoid any influence of glutamate released by the cells in the assay medium. In the experiments carried out by the inventors, Group-III mGluRs were co-transfected with a chimeric G-protein which couples the activation of the receptor to the phospholipase-C (PLC) pathway. Thus receptor activation induces production of inositol phosphate (IP) which in turn induces intracellular Ca^2+ release. Receptor activity was then determined by measurement of the IP production or Ca release as already described (Goudet C. et al., PNAS 2004). For intracellular calcium measurements, cells expressing mGluRs were loaded with Ca2+-sensitive fluorescent dye Fluo-4 AM (Invitrogen, Cergy-Pontoise, France) dissolved in Hanks' balanced salt solution (HBSS, Invitrogen, Cergy-Pontoise, France) containing 2.5 mM Probenicid (Sigma-Aldrich Chemie, Saint-Quentin Fallavier, France) for 1 h at 37° C., then washed and incubated with HBSS containing probenecid. A drug plate was prepared with the various concentrations of agonist to be tested and drug solution was added in each well after 20 s of recording. Fluorescence signals (excitation 485 nm, emission 525 nm) were measured by using the fluorescence microplate reader Flexstation III (Molecular Devices, Saint-Grégoire, France) at sampling intervals of 1.5 s for 60 s. All points are realized in triplicate.
(§3) The dose-response curves were fitted using the GraphPad Prism program and the following equation: y=[(ymax−ymin)/(1+(x/EC50)n)]+ymin where EC50 is the concentration of the compound necessary to obtain the half maximal effect and n is the Hill coefficient.

mGlu7 [2] = target: mGlu7 (Homo sapiens (Human), UniProt Q14831); assay: as above; assay type: cell-based; details: transfected cells, calcium release; read-out: mGlu7 EC50 μM (n)
Chain of mGlu7 (Homo sapiens (Human), UniProt Q14831) (Q14831 35-915): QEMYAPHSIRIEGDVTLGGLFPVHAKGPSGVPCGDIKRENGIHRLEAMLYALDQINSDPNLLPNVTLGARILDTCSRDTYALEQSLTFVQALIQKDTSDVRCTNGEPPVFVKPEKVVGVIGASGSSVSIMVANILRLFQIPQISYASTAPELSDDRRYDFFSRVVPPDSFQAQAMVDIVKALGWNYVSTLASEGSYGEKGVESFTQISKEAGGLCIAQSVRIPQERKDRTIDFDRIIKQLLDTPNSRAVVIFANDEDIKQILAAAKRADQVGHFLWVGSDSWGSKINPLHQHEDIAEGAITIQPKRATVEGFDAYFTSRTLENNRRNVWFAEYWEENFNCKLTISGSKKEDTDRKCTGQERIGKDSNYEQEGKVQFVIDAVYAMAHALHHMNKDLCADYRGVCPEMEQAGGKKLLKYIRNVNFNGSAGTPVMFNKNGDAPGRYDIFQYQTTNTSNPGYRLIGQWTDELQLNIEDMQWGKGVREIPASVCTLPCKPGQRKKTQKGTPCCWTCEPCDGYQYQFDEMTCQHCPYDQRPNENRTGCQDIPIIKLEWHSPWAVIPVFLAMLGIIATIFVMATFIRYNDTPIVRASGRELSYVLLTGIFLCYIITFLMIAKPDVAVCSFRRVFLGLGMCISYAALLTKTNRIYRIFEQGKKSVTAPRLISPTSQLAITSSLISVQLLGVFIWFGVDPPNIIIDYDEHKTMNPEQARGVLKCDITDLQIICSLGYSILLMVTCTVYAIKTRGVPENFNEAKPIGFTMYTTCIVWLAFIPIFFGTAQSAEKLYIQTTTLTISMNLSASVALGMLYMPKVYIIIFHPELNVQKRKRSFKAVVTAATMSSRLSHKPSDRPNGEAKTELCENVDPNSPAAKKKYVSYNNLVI
Source text: as §1, §2, §3

[3] = system: CCI neuropathic pain model; assay: Paw pressure test in CCI neuropathic pain model in rats; assay type: in vivo, rat
Experimental: After the induction period of the neuropathy or inflammation, various amounts of derivative 2 dissolved in serum have been injected in rats, (from 0.5 to 15 μg/rat, i.t. from 1 to 30 mg/kg, i.p.) on time-course of vocalization threshold to paw pressure. The results obtained on healthy animals are given on FIG. 1. They are expressed by the time course curves of means+/-SEM of vocalization threshold in grams (n=6-8 rats per group) (A) or by the area under the curve (B). Morphine (10 μg/rat, i.t.) is used as a positive control. […] FIG. 4 illustrates the effect of intrathecal administration of derivative 2 on the vocalization threshold to paw pressure in the CCI neuropathic pain model (effect of derivative 2 (1, 5, 10 μg/rat, i.t.) on time-course of vocalization threshold to paw pressure). Gabapentin (100 mg/kg, p.o.) is used as a positive control. […] The effect of intrathecal administration of derivative 2 (10 μg/rat, i.t.) on the vocalization threshold to paw pressure in the CCI neuropathic pain model after mGluR4 or mismatch ODN treatment is illustrated by FIG. 4. […] The animals were submitted to the paw pressure test previously described by Randall and Selitto (1957). Nociceptive thresholds, expressed in grams (g), were measured with a Ugo Basile analgesimeter (Apelex, tip diameter of the probe: 1 mm, weight: 30 g) by applying an increasing pressure to the right hind paw of rats until a squeak (vocalization threshold) was obtained (cut-off was 750 g except carrageenan treated animals for which the cut-off was 500 g). The treatments were done after the measurement of two consecutive stable vocalization threshold values and their effects were assessed 15, 30, 45, 60, 90, and 120 min after. Unilateral peripheral mononeuropathy was induced according to the method described by Bennett and Xie (1988). Briefly, after determining vocalization thresholds, rats were anesthetized with sodium pentobarbital (50 mg/kg i.p.) and four chromic gut (5-0) ligatures were tied loosely (with about 1-mm spacing) around the right common sciatic nerve. The nerve was constricted to a barely discernible degree, so that circulation through the epineurial vasculature was not interrupted. Only animals presenting a decrease ≧15% of the presurgery value of vocalization threshold were selected, i.e., 90% of ligated animals (presurgery value: 379±7 g, pre-drug value: 188±7 g). Intrathecal injections were performed, under isoflurane anesthesia (4% induction, 2% maintenance), as previously described (Mestre et al., 1994). Briefly, the anesthetized rat was held in one hand by the pelvic girdle and a 25-gauge X1-inch needle connected to a 25 μL Hamilton syringe was inserted into the subarachnoidal space between lumbar vertebrae L5 and L6, until a tail flick was elicited. The syringe was held in position for few seconds after the injection of a volume of 10 μL/rat. AS ODN was designed based on rat mGluR4 sequence in regions lacking known splice variants. […]. One ODN with scramble arrangement in the base composition compared to the 18-mer specific as was used as control for sequence-independent effects of ODN treatments. […] Pain scores were determined using standard methods in strict conformity with ethical standards (Zimmermann M., 1983) before ODN treatments and then on day 4 in the afternoon. […]

With `N[C@@H](CCP(=O)(O)C(O)c1ccc(OCC(=O)O)cc1)C(=O)O` (stereo partly drawn) [Derivative 2, [((3S)-3-Amino-3-carboxy)propyl][(4-(carboxymethoxy)phenyl)hydroxymethyl]phosphinic Acid] the “mGlu7/4 EC50 ratio” value (mGlu7 [1]) was 100, the EC50 (mGlu7 [2]) was 11.6 ± 1.9 µM and the “antihyperalgesic effect on vocalization threshold to paw pressure” value ([3]; CCI neuropathic pain, rats, 1-10 μg/rat i.t.) was “abolishes the excess of mechanical pain”. For the same compound, the “antihyperalgesic effect after antisense oligonucleotides against mGlu4” value ([3]; CCI neuropathic rats, 10 μg/rat i.t., versus saline or mismatch ODN) was “significantly reduced”, the “mechanical antihyperalgesia after knockdown of spinal mGlu4 expression by antisense oligonucleotides” value ([3]; FIG. 7 legend, model not named) was “reduces mechanical antihyperalgesia” and the “antihyperalgesic effect compared to gabapentine” value ([3]; neuropathy model, gabapentine 100 mg/kg per os as control) was “significantly higher than the one of gabapentine”.
